Patent US20250066363A1, “Bicyclic DGK Inhibitors” (Incyte Corporation, priority 2023, published 2025)

Legend:
DGKα = DGKα (Homo sapiens (Human), UniProt P23743); assay: In vitro DGKα inhibition assay (ADP-Glo); assay type: biochemical; conditions: first column of Table A; His-tagged human recombinant DGKα 0.1 nM, 50 μM ATP, 20 μM DLG
Method: (§1) The DGKα and DGKζ biochemical reactions were performed using His-tagged human recombinant enzymes (Signal Chem, DGKα, #D21-10BH; DGKζ, #D30-1OH)) and DLG (Dilauroyl-sn-glycerol) lipid substrate (Signal Chem, #D430-59). ADP-Glo assay was performed using ADP-Glo™ kinase Assay kit (Promega, #V9104). The reactions were carried out in assay buffer containing 40 mM Tris, pH 7.5, 0.1% CHAPS, 0.1% Prionex, 40 mM NaCl, 5 mM MgCl2, 1 mM CaCl2, and 1 mM DTT. DGKα reactions contained 0.1 nM DGKα, 50 μM ATP, and 20 μM DLG. And DGKζ reactions contained 0.4 nM DGKζ, 30 μM ATP, and 20 μM DLG.
(§2) For compound inhibition studies, 40 nL test compound in DMSO was added to wells of white polystyrene plates in 384-well (Greiner, #784075) or 1536-well format (Greiner, #782075). Compounds were added with top concentration of 2 mM with 11 point, 3-fold dilution series. Enzyme solution (contains 2× DGK enzyme concentration in 1× assay buffer) was added to the plate in 2 μL/well volume, followed by 2 μL/well of substrate solution (contains 2× concentration of ATP and DLG substrate in 1× assay buffer). Plates were then centrifuged for 1 min at 1200 RPM and sealed or lidded. For 4 μL reaction volume, test compounds were therefore diluted 100× to final top concentration of 20 μM. After 90 minute incubation, reactions were quenched by addition of 2 μL/well Promega ADP-Glo Reagent, followed by centrifugation and lidding. After 60 min incubation, 2 μL/well Promega Kinase Detection Reagent was added, plates centrifuged, and incubated for 30 min. Plates were then read using Luminescence method on BMG PHERAstar FSX plate reader. Percent inhibition was calculated and IC50s were determined using 4-parameter fit in Genedata Screener. Labcyte Echo acoustic dispenser was used for compound addition, and Formulatrix Tempest liquid handler was used for all reagent dispenses.

DGKζ = DGKζ (Homo sapiens (Human), UniProt Q13574); assay: In vitro DGKζ inhibition assay (ADP-Glo); assay type: biochemical; conditions: second column of Table A, head printed DGKα, presumably DGKζ; His-tagged human recombinant DGKζ 0.4 nM, 30 μM ATP, 20 μM DLG
Chain of DGKζ (Q13574 whole entry): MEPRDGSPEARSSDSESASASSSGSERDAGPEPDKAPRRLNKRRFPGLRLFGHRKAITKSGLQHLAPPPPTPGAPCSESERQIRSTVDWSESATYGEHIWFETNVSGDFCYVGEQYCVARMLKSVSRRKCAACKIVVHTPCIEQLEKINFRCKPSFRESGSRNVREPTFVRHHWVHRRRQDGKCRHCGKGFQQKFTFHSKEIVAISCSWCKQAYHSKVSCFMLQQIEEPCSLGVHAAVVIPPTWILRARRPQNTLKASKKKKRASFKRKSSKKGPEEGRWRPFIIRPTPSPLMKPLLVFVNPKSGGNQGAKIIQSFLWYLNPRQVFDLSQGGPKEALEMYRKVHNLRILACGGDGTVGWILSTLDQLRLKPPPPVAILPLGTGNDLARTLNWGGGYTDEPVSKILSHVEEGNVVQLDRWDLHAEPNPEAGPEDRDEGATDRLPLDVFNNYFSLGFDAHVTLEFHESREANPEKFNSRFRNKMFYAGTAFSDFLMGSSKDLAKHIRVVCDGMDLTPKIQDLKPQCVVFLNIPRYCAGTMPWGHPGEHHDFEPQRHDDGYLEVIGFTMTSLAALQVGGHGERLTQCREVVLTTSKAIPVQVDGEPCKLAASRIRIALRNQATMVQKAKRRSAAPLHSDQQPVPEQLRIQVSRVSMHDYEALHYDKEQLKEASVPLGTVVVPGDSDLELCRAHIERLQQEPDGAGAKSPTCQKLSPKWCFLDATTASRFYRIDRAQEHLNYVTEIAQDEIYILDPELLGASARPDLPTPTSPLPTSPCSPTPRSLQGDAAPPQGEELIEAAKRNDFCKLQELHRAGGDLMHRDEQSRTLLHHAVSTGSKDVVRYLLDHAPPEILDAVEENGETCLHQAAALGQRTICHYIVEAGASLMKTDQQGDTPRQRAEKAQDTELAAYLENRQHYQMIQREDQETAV
Method: as §1, §2

Chain of DGKα (P23743 whole entry): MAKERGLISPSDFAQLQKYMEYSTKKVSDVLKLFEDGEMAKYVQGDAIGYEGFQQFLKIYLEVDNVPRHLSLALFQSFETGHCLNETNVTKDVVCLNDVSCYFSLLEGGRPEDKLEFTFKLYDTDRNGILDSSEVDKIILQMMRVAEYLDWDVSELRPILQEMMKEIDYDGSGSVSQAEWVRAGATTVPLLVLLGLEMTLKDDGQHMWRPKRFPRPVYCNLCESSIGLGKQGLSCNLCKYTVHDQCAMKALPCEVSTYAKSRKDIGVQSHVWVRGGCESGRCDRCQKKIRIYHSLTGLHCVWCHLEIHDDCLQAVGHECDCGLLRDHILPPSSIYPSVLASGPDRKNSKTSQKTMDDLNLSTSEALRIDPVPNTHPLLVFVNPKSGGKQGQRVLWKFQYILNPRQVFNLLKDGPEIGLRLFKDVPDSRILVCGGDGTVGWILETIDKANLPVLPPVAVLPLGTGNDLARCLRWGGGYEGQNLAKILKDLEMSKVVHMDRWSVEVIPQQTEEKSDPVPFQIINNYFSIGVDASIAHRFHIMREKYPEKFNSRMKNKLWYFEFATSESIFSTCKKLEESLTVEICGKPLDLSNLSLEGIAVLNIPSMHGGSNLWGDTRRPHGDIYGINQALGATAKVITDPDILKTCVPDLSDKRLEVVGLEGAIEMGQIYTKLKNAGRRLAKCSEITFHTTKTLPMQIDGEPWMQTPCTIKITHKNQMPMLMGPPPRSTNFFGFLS

SMILES | IC50 (DGKα) [µM] | IC50 (DGKζ) [µM]
C[C@@H]1CN(c2nc(=O)n(C)c3c2ncn3C[C@@H]2CCCO2)[C@@H](C)CN1C(c1ccc(F)cc1)c1ccc(F)cc1 [Example 10, 6-((2S,5R)-4-(Bis(4-fluorophenyl)methyl)-2,5-dimethylpiperazin-1-yl)-3-methyl-9-(((S)-tetrahydrofuran-2-yl)methyl)-3,9-dihydro-2H-purin-2-one] | ≤ 0.01 | ≤ 0.01
Cc1nc2c(N3C[C@@H](C)N(C(c4ccc(F)cc4)c4ccc(F)cc4)C[C@@H]3C)cc(=O)n(C)c2n1C[C@@H]1CCCO1 [Example 11, 7-((2S,5R)-4-(Bis(4-fluorophenyl)methyl)-2,5-dimethylpiperazin-1-yl)-2,4-dimethyl-3-(((S)-tetrahydrofuran-2-yl)methyl)-3,4-dihydro-5H-imidazo[4,5-b]pyridin-5-one] | ≤ 0.01 | ≤ 0.01
C[C@@H]1CN(c2nc(=O)n(C)c3c2nnn3C[C@@H]2CCCO2)[C@@H](C)CN1C(c1ccc(F)cc1)c1ccc(F)cc1 [Example 12, 7-((2S,5R)-4-(Bis(4-fluorophenyl)methyl)-2,5-dimethylpiperazin-1-yl)-4-methyl-3-(((S)-tetrahydrofuran-2-yl)methyl)-3,4-dihydro-5H-[1,2,3]triazolo[4,5-d]pyrimidin-5-one] | ≤ 0.01 | ≤ 0.01
C[C@@H]1CN(c2nc(=O)n(C)c3c2nnn3C[C@H]2CCCO2)[C@@H](C)CN1C(c1ccc(F)cc1)c1ccc(F)cc1 [Example 13, 7-((2S,5R)-4-(Bis(4-fluorophenyl)methyl)-2,5-dimethylpiperazin-1-yl)-4-methyl-3-(((R)-tetrahydrofuran-2-yl)methyl)-3,4-dihydro-5H-[1,2,3]triazolo[4,5-d]pyrimidin-5-one] | ≤ 0.01 | ≤ 0.01
Cc1nc2c(N3C[C@@H](C)N(C(CC(C)C)c4ccc(Cl)cc4)C[C@@H]3C)nc(=O)n(C)c2n1C[C@@H]1CCCO1 (stereo partly drawn) [Example 16, 6-((2S,5R)-4-(1-(4-Chlorophenyl)-3-methylbutyl)-2,5-dimethylpiperazin-1-yl)-3,8-dimethyl-9-(((S)-tetrahydrofuran-2-yl)methyl)-3,9-dihydro-2H-purin-2-one] | ≤ 0.01 | ≤ 0.01
CC[C@@H]1CN(c2nc(=O)n(C)c3c2nnn3C[C@H]2CCCO2)[C@@H](C)CN1[C@H](c1ccc(Cl)cc1)[C@@H]1CC1(F)F [Example 22, 7-((2S,5R)-4-((S)-(4-Chlorophenyl)((S)-2,2-difluorocyclopropyl)methyl)-5-ethyl-2-methylpiperazin-1-yl)-4-methyl-3-(((R)-tetrahydrofuran-2-yl)methyl)-3,4-dihydro-5H-[1,2,3]triazolo[4,5-d]pyrimidin-5-one] | ≤ 0.01 | ≤ 0.1
CC[C@@H]1CN(c2nc(=O)n(C)c3c2nnn3C[C@H]2CCCO2)[C@@H](C)CN1[C@@H](c1ccc(Cl)cc1)[C@@H]1CC1(F)F [Example 23, 7-((2S,5R)-4-((R)-(4-chlorophenyl)((S)-2,2-difluorocyclopropyl)methyl)-5-ethyl-2-methylpiperazin-1-yl)-4-methyl-3-(((R)-tetrahydrofuran-2-yl)methyl)-3,4-dihydro-5H-[1,2,3]triazolo[4,5-d]pyrimidin-5-one] | ≤ 0.01 | ≤ 0.01
CC[C@@H]1CN(c2nc(=O)n(C)c3c2nc(C)n3C[C@@H]2CCCO2)[C@@H](C)CN1[C@@H](CC)c1ccc(Cl)cc1 [Example 24, 6-((2S,5R)-4-((S)-1-(4-Chlorophenyl)propyl)-5-ethyl-2-methylpiperazin-1-yl)-3,8-dimethyl-9-(((S)-tetrahydrofuran-2-yl)methyl)-3,9-dihydro-2H-purin-2-one] | ≤ 0.01 | ≤ 0.01
CC[C@@H]1CN(c2nc(=O)n(C)c3c2nc(C)n3C[C@@H]2CCCO2)[C@@H](C)CN1[C@H](CC)c1ccc(Cl)cc1 [Example 25, 6-((2S,5R)-4-((R)-1-(4-chlorophenyl)propyl)-5-ethyl-2-methylpiperazin-1-yl)-3,8-dimethyl-9-(((S)-tetrahydrofuran-2-yl)methyl)-3,9-dihydro-2H-purin-2-one] | ≤ 0.01 | ≤ 0.01
